Measurements reported in US10280170B2, “Substituted 4,5,6,7-tetrahydro-pyrazolo[1,5-a]pyrazine derivatives and 5,6,7,8-tetrahydro-4H-pyrazolo[1,5-a][1,4]diazepine derivatives as Ros1 inhibitors” (Janssen Pharmaceutica NV, priority 2014, dated 2019).
Like-named read-outs stand apart in the source and are kept apart here.

Legend:
Ros1 enzyme = molecular target: T1, Ros1 enzyme (Homo sapiens, UniProt P08922); assay: Ros1 enzymatic assay; format: biochemical; settings: Ros1 enzymatic assay; for IC50: read-out: ROS1 pIC50 (converted)
T1 construct: 0.5 μg/ml Ros1 enzyme
T1 sequence (P08922 28-2347): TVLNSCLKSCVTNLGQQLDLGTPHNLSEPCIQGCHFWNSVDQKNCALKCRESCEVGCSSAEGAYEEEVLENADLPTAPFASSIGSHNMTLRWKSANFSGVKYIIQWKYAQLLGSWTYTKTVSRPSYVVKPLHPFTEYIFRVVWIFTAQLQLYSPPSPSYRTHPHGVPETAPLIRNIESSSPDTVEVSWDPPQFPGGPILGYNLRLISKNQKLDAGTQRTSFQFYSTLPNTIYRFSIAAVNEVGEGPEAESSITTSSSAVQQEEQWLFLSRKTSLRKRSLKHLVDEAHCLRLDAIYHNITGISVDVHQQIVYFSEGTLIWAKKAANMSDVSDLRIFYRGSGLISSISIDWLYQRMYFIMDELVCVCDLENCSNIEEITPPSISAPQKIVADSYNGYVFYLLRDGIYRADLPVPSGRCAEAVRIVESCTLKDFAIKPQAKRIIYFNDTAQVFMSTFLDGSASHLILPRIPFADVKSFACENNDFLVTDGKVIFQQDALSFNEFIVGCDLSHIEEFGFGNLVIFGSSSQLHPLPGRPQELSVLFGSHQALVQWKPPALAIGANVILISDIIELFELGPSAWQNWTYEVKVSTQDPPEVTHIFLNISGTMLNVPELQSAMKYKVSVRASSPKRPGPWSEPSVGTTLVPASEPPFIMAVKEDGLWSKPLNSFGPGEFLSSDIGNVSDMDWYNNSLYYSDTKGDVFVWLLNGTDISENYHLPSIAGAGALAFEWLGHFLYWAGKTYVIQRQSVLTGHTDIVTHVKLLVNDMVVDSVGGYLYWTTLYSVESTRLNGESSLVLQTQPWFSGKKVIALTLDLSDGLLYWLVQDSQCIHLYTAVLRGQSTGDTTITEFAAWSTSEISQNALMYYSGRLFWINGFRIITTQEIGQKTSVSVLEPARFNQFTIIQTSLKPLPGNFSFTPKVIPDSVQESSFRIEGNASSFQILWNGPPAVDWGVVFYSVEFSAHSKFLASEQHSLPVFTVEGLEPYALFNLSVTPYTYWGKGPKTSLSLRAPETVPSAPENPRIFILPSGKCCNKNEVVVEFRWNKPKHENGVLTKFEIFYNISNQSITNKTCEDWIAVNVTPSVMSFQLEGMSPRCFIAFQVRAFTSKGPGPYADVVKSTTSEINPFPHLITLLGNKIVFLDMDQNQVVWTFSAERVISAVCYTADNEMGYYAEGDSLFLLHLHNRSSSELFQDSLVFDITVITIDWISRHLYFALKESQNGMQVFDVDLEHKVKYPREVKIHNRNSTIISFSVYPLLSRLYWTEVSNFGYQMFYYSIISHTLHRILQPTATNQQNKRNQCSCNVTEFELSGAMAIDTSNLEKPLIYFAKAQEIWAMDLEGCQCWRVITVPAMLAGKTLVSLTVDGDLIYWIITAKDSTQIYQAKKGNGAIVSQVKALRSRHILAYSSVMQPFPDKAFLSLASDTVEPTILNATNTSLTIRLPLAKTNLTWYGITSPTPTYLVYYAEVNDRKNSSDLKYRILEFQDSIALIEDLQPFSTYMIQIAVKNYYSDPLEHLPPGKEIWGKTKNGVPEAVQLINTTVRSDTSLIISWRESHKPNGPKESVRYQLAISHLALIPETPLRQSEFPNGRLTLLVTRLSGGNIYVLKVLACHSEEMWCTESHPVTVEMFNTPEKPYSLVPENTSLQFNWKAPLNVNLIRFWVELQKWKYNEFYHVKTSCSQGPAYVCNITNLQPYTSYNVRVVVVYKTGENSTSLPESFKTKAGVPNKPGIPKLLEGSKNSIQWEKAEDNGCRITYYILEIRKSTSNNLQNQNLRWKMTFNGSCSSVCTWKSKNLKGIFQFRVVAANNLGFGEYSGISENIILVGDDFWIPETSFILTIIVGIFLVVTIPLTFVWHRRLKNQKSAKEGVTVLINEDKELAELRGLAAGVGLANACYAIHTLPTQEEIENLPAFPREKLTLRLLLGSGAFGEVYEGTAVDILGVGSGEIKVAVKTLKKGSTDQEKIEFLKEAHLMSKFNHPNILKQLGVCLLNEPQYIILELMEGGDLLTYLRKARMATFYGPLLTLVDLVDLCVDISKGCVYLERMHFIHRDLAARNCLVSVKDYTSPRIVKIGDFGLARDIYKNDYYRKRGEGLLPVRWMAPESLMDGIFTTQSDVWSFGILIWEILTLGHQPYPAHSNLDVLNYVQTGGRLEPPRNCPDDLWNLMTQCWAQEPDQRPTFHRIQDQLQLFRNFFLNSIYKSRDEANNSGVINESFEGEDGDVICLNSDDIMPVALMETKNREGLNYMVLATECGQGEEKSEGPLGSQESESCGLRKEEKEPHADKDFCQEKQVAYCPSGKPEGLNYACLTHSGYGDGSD
In short: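 Ros1 (0.5 μg/ml in enzyme mix) was combined with a substrate mix of biotinylated IRS-Tide (6 μg/ml) and 20 μM ATP spiked with 33P-ATP in 50 mM Tris-HCl pH7.5, 10 mM MgCl2, 1 mM EGTA, 0.01% Tween-20. Reaction ran 120 min at room temperature before EDTA stop.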

[1] = test system: HCC78 non-small cell lung cancer cells; assay: HCC78 cell proliferation assay; format: cell-based; settings: for EC50: Homo sapiens, HCC78, 96 h, read-out: HCC-78 PROL pEC50 (converted)
Method: HCC78 Cell Proliferation Assay
Approximately 1000 HCC78 non-small cell lung cancer cells in 180 μl of cell culture medium (RPMI-1640, 10% FBS, 2 mM L-Glutamine, 10 mM Hepes, 1 mM sodium pyruvate, 4.5 g/L glucose, 1.5 g/L sodium bicarbonate, 25 μg/ml Gentamycin) were seeded in each well of a 96-well polystyrene, tissue-culture treated plate and incubated at 37° C. and 5% CO2. After 24 hours, compounds were diluted in cell culture medium from which 20 μl was added to the wells containing cells and incubated for 4 days at 37° C. and 5% CO2. A 5 mg/ml solution of the tetrazolium dye MTT was prepared in PBS (phosphate-buffered saline) and 25 μl was added to each well. After 2 hours the medium was removed and replaced by 125 μL of 4/1 DMSO/glycine buffer (0.1M glycine, 0.1M NaCl, pH 10.5) before absorbance was determined at 538 nm.

[2] = test system: Ba/F3 cells containing Ros1 wild-type protein + IL-3; assay: Ba/F3-Ros1 cell proliferation counter-screen, wild-type protein in the presence of 10 ng/ml murine IL-3; format: cell-based; settings: Mus musculus, BaF3, 24 h, read-out: BaF3-ROS1 + IL3 pIC50 (converted)
In short: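 Ba/F3 cells expressing wild-type Ros1 were grown with 10 ng/ml murine IL-3 and test compound in RPMI-1640 with 10% FBS and 2 mM L-glutamine for 24 h at 37 °C, 5% CO2. Viability was then read as Alamar Blue (resazurin) fluorescence (ex 540/em 590 nm) after 4 h further incubation.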

[3] = molecular target: Ba/F3 cells containing Ros1 with a mutation at the gatekeeper residue (L2026M) (Homo sapiens, UniProt P08922, L2026M, cells depend on it, form not given); assay: Ba/F3-Ros1 cell proliferation assay, L2026M gatekeeper mutant; format: cell-based, murine; settings: without IL-3
Ba/F3 cells containing Ros1 with a mutation at the gatekeeper residue (L2026M), sequence (P08922 whole entry L2026M, form open): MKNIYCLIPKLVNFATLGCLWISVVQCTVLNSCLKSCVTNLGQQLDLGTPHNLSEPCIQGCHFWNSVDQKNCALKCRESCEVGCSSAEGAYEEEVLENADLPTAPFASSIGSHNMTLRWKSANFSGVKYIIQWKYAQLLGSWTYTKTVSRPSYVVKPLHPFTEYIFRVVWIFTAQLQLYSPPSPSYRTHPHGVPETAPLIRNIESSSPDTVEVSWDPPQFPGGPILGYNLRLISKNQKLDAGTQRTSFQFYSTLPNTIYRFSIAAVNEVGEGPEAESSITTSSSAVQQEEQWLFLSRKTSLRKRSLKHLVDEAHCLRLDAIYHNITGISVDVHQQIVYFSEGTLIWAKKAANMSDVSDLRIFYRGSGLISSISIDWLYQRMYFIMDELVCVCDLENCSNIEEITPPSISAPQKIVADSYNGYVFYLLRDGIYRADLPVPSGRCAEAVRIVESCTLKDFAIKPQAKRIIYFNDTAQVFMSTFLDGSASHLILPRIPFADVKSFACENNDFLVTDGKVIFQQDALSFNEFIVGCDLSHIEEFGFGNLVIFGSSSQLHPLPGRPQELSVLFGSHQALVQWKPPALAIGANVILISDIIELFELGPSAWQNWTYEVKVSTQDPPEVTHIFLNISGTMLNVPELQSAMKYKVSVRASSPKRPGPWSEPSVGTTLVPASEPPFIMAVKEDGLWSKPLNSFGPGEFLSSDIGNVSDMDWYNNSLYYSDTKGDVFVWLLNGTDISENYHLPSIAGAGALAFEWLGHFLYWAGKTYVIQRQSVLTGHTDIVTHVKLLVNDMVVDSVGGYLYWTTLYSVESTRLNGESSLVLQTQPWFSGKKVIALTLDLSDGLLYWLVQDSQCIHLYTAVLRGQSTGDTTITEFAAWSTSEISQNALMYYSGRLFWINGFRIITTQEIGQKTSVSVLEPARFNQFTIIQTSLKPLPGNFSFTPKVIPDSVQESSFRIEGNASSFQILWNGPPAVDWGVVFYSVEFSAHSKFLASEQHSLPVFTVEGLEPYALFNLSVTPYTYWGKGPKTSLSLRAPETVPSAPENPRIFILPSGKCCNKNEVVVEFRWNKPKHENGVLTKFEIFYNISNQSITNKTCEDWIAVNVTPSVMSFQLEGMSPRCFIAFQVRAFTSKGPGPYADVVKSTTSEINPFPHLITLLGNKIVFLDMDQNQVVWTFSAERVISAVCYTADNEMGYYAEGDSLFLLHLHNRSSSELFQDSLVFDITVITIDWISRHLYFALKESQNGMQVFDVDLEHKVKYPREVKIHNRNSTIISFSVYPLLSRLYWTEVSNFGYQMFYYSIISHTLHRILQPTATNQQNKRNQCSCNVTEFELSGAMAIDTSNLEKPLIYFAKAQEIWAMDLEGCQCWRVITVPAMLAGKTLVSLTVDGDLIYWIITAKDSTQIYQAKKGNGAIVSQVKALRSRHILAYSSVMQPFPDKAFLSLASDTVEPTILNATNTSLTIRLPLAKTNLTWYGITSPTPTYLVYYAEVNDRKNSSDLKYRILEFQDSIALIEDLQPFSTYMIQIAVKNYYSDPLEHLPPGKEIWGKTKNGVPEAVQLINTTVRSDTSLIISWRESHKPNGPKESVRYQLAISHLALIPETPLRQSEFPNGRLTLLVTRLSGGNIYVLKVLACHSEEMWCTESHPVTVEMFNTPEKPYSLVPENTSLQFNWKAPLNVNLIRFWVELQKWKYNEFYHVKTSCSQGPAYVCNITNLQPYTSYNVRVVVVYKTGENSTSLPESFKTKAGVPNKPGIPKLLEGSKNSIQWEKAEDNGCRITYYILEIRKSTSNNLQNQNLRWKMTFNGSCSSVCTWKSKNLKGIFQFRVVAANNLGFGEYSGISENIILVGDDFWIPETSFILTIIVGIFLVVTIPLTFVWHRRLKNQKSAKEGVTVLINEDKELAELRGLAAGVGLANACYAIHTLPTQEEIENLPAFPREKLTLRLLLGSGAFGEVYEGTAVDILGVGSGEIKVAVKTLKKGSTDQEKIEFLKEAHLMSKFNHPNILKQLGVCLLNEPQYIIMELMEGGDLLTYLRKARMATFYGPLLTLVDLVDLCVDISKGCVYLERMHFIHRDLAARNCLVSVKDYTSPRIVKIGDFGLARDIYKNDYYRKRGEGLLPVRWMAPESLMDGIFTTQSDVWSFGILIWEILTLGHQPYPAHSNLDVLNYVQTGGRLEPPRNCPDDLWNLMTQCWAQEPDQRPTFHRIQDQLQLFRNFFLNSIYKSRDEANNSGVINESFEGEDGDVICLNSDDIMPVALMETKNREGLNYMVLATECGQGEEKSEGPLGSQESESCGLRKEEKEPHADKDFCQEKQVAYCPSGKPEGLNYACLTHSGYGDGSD
In short: (§1)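 Alamar Blue read-out (resazurin, ex. 540 nm, em. 590 nm, 4 h at 37 °C) after 24 h compound exposure of 20000 Ba/F3-Ros1 cells per well. Cells carry WT, gatekeeper L2026M or crizotinib-resistant G2032R Ros1; medium RPMI-1640, 10% FBS, 2 mM L-Glutamine.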

[4] = molecular target: T2, Ba/F3 cells containing Ros1 wild-type protein (Homo sapiens, UniProt P08922, cells depend on it, form not given); assay: Ba/F3-Ros1 cell proliferation assay, wild-type Ros1; format: cell-based, murine; settings: without IL-3
T2 construct: The background only speaks of 'a number of different unrelated proteins' and names SLC34A2-ROS1 for HCC78 cells
T2 sequence (P08922 whole entry, stated change not applied): as the sequence (P08922 whole entry L2026M, form open) above, with M2026L counted along it
In short: as §1

[5] = counter-screen, wild-type, 10 ng/ml murine IL-3

Row | SMILES | IC50 (Ros1 enzyme) | melting point | EC50 ([1]; HCC78 cells, 4 days, MTT) | CC50 [2, 5] | Ba/F3 Ros1 L2026M (-IL-3) pIC50 [3] | BaF3-ROS1-IL3 pIC50 [4] | HCC-78 PROL pEC50 ([1]; HCC78 cells, 4 days, MTT) | EC50 [1] | CC50 [2] | ROS1 pIC50 (Ros1 enzyme)
1 | CC(C)c1ccc(C2CNc3cc(-c4c(-c5ccncc5)nn5c4C(=O)NCC5)ccc3O2)cc1 (racemic) [Compound 226] | 631 nM | 252 °C | 501 nM | > 10 µM | 6.8 | 7.1 | – | – | – | –
2 | CC(C)c1ccc(COc2ccc(-c3c(-c4ccncc4)nn4c3C(=O)N(C(C)CO)CC4)cc2)cc1 (single isomer, unassigned) [Compound 38] | 12.6 nM | 144 °C | – | – | 7.5 | 7.9 | 7.3 | – | – | –
3 | CC(C)c1ccc(COc2ccc(-c3c(-c4ccncc4)nn4c3C(=O)NCC4)cc2)cc1CCO [Compound 11] | 10 nM | 195 °C | – | – | 7.8 | 7.7 | – | 31.6 nM | > 10 µM | –
4 | CC(C)c1ccc(COc2ccc(-c3c(-c4ccncc4)nn4c3C(=O)NCC4)c(F)c2F)cc1 [Compound 16] | 100 nM | 214 °C | – | – | 7.1 | 7.4 | – | 398 nM | > 10 µM | –
5 | CC(C)c1ccc(COc2ccc(-c3c(-c4ccncc4)nn4c3C(=O)N(CC(O)CO)CC4)c(F)c2)cc1 (centres unmarked) [Compound 22] | – | 188 °C | – | – | 7.4 | 7.8 | 7.7 | – | – | 7.9
6 | CC(C)c1ccc(COc2ccc(-c3c(-c4ccncc4)nn4c3C(=O)N(CC(O)CO)CC4)cc2)cc1 (centres unmarked) [Compound 41] | 31.6 nM | 191 °C | – | – | 6.6 | 7.4 | 7.1 | – | – | –
7 | CC(C)c1cc(F)c(COc2ccc(-c3c(-c4ccncc4)nn4c3C(=O)N(CC(O)CO)CC4)cc2)c(F)c1 (centres unmarked) [Compound 95] | 158 nM | 227 °C | – | > 10 µM | – | 6.8 | 6.4 | – | – | –
8 | CC(C)c1cc(F)c(COc2ccc(-c3c(-c4ccncc4)nn4c3C(=O)N(CC(O)CO)CC4)cc2)c(F)c1 (centres unmarked) [Compound 96] | – | 228 °C | – | – | 6.6 | 6.9 | 5.9 | – | – | 6.8
9 | CC(C)c1cc(F)c(COc2ccc(-c3c(-c4ccncc4)nn4c3C(=O)N(CC(O)CO)CC4)cc2)cc1F (centres unmarked) [Compound 99] | 501 nM | 183 °C | – | – | 6.0 | 6.6 | 5.7 | – | – | –
10 | CC(C)(CN)c1ccc(COc2ccc(-c3c(-c4ccncc4)nn4c3C(=O)NCC4)cc2)cc1 [Compound 121] | – | 233 °C | 1000 nM | > 10 µM | 5.9 | 6.3 | – | – | – | –
11 | CC(O)CN1CCn2nc(-c3ccncc3)c(-c3ccc(OCc4ccc(C5CC5)cc4)cc3)c2C1=O (centres unmarked) [Compound 135] | 158 nM | 197 °C | – | – | 7.0 | 7.3 | 6.5 | – | – | –
12 | O=C1c2c(-c3ccc(OCc4ccc(C5CC5)nc4)cc3)c(-c3ccncc3)nn2CCN1CC(O)CO (centres unmarked) [Compound 140] | 251 nM | – | 2000 nM | > 10 µM | 5.8 | 6.4 | – | – | – | –
13 | CC(C)c1ccc(C(CO)Oc2ccc(-c3c(-c4ccncc4)nn4c3C(=O)NCC4)cc2)cc1 (centres unmarked) [Compound 146] | 2000 nM | – | 3980 nM | > 10 µM | 7.6 | 6.2 | – | – | – | –
14 | CC(C)c1ccc(COc2ccc(-c3c(-c4ccncn4)nn4c3C(=O)N(CCOCCO)CC4)cc2)cc1 [Compound 162] | 79.4 nM | – | – | – | 7.1 | 7.2 | – | 398 nM | > 10 µM | –
15 | CNC(=O)CN1CCn2nc(-c3ccncn3)c(-c3ccc(OCc4ccc(C(C)C)cc4)cc3)c2C1=O [Compound 164] | 158 nM | – | 794 nM | > 10 µM | 6.7 | 7.0 | – | – | – | –
16 | Fc1cc(OCc2ccc(C3CC3)cc2)ccc1-c1c(-c2ccncc2)nn2c1CNCC2 [Compound 184] | 100 nM | – | 251 nM | > 10 µM | 6.6 | 7.3 | – | – | – | –
17 | CC(C)c1ccc(COc2ccc(-c3c(-c4ccncc4)nn4c3CN(CCO)CC4)c(F)c2)cc1 [Compound 187] | 79.4 nM | – | – | – | 6.4 | 7.2 | – | 100 nM | > 10 µM | –
18 | CC(O)CN1CCn2nc(-c3ccncc3)c(-c3ccc(OCc4ccc(C(C)C)cc4)cc3)c2C1 (centres unmarked) [Compound 192] | – | 151 °C | – | – | 6.9 | 6.9 | 6.2 | – | – | 6.8
19 | CC(C)c1ccc(COc2ccc(-c3c(-c4ccncc4)nn4c3C(=O)N(C)C(CO)C4)cc2)cc1 (centres unmarked) [Compound 196] | 158 nM | – | – | – | 6.4 | 6.9 | – | 631 nM | > 10 µM | –
20 | CC(C)c1ccc(COc2cc(F)c(-c3c(-c4ccncc4)nn4c3C(=O)N(CCO)CC4)cc2F)cc1 [Compound 203] | 3.98 nM | – | – | – | 8.0 | 8.2 | – | 10 nM | > 10 µM | –
21 | O=C1c2c(-c3ccc(OCc4ccc(C5CC5)nc4)cc3F)c(-c3ccncc3)nn2CCN1CCO [Compound 207] | 20 nM | – | – | – | 6.5 | 7.1 | – | 501 nM | > 10 µM | –
22 | O=C1c2c(-c3ccc(OCc4ccc(C5CC5)nc4)cc3F)c(-c3ccncc3)nn2CCN1CC(O)CO (centres unmarked) [Compound 208] | 63.1 nM | – | 398 nM | > 10 µM | 6.3 | 6.8 | – | – | – | –
23 | CNC(=O)CN1CCn2nc(-c3ccncc3)c(-c3ccc(OCc4ccc(C(C)C)cc4)cc3F)c2C1 [Compound 209] | 63.1 nM | – | – | – | 7.5 | 7.5 | – | 501 nM | 5.01 µM | –
24 | CNC(=O)C(Oc1ccc(-c2c(-c3ccncc3)nn3c2C(=O)NCC3)cc1)c1ccc(C(C)C)cc1 (centres unmarked) [Compound 217] | 398 nM | – | 3160 nM | > 10 µM | 6.0 | 6.3 | – | – | – | –
25 | C[Si](C)(C)c1ccc(COc2ccc(-c3c(-c4ccncc4)nn4c3C(=O)NCC4)cc2)cc1 [Compound 232] | 2000 nM | – | 2510 nM | > 10 µM | 6.5 | 6.7 | – | – | – | –
26 | CNCCc1cc(COc2ccc(-c3c(-c4ccncc4)nn4c3C(=O)NCC4)cc2)ccc1C(C)C [Compound 234] | 20 nM | – | – | – | 6.7 | 7.1 | – | 126 nM | > 10 µM | –
27 | CNCCc1cc(COc2ccc(-c3c(-c4ccncc4)nn4c3C(=O)N(CCO)CC4)cc2)ccc1C(C)C [Compound 235] | 25.1 nM | – | 316 nM | > 10 µM | 6.5 | 6.7 | – | – | – | –
28 | CNCCc1cc(COc2ccc(-c3c(-c4ccncc4)nn4c3C(=O)N(C)CC4)cc2)ccc1C(C)C [Compound 236] | 15.8 nM | – | 126 nM | 3.98 µM | 7.4 | 7.6 | – | – | – | –
